Results taken from the supplement of paper PMC10307832.

How the values were obtained:
Test in all cases: relative viability (nuclei count vs DMSO), 5 days (fraction); higher = more cells survive
TPCA-1 + Decitabine = compound: C1=CC(=CC=C1C2=CC(=C(S2)NC(=O)N)C(=O)N)F [TPCA-1] + Nc1ncn([C@H]2C[C@H](O)[C@@H](CO)O2)c(=O)n1 [Decitabine] (partner 2 µM)
Outline: (§1)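 A single step with final 0.05% Triton X-100, 1% formaldehyde and 1 ug/ml Hoechst fixed the cells and stained nuclei 5 days after treatment. Lung cancer cell lines in 1536-well plates had been treated by pin tool the day after seeding with one drug alone or a fixed anchor-drug dose plus five library-drug doses (not always all listed) in √10 steps, and nuclei were counted on 4× images. Relative viability is the ratio of nuclei in treated wells to nuclei in vehicle wells, taken as the median of duplicate plates.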

[1] = compound: C[C@]12O[C@H](C[C@]1(O)CO)n1c3ccccc3c3c4c(c5c6ccccc6n2c5c31)CNC4=O [Lestaurtinib] + O=C(CCCCCCC(=O)Nc1ccccc1)NO [Vorinostat] (partner 1 µM)
Outline: as §1

[2] = compound: C[C@]12O[C@H](C[C@]1(O)CO)n1c3ccccc3c3c4c(c5c6ccccc6n2c5c31)CNC4=O [Lestaurtinib] + CC(=O)c1c(C)c2cnc(Nc3ccc(N4CCNCC4)cn3)nc2n(C2CCCC2)c1=O [Palbociclib] (partner 0.5 µM)
Outline: as §1

TPCA-1 + Alpelisib = compound: C1=CC(=CC=C1C2=CC(=C(S2)NC(=O)N)C(=O)N)F [TPCA-1] + Cc1nc(NC(=O)N2CCC[C@H]2C(N)=O)sc1-c1ccnc(C(C)(C)C(F)(F)F)c1 [Alpelisib] (partner 2 µM)
Outline: as §1

Row | Cell Line | relative viability (TPCA-1 + Decitabine; first compound 0.04 µM) | relative viability (TPCA-1 + Decitabine; first compound 0.1265 µM) | relative viability (TPCA-1 + Decitabine; first compound 0.4 µM) | relative viability (TPCA-1 + Decitabine; first compound 1.265 µM) | relative viability (TPCA-1 + Decitabine; first compound 4 µM) | relative viability ([1]; first compound 0.005 µM) | relative viability ([1]; first compound 0.01581 µM) | relative viability ([1]; first compound 0.05 µM) | relative viability ([1]; first compound 0.1581 µM) | relative viability ([1]; first compound 0.5 µM) | relative viability ([2]; first compound 0.005 µM) | relative viability ([2]; first compound 0.01581 µM) | relative viability ([2]; first compound 0.05 µM) | relative viability ([2]; first compound 0.1581 µM) | relative viability ([2]; first compound 0.5 µM) | relative viability (TPCA-1 + Alpelisib; first compound 0.04 µM) | relative viability (TPCA-1 + Alpelisib; first compound 0.1265 µM) | relative viability (TPCA-1 + Alpelisib; first compound 0.4 µM) | relative viability (TPCA-1 + Alpelisib; first compound 1.265 µM) | relative viability (TPCA-1 + Alpelisib; first compound 4 µM)
1 | NCI-H1355 | 0.365 | 0.35 | 0.342 | 0.346 | 0.354 | 0.733 | 0.675 | 0.457 | 0.412 | 0.31 | 0.455 | 0.403 | 0.332 | 0.273 | 0.254 | 0.802 | 0.567 | 0.871 | 0.761 | 0.555
2 | EKVX | 0.366 | – | 0.383 | 0.316 | 0.345 | 0.744 | 0.742 | 0.765 | 0.578 | 0.368 | 0.346 | – | 0.355 | 0.421 | 0.426 | 0.913 | 0.838 | 0.934 | 0.726 | 0.795
3 | NCI-H441 | 0.252 | 0.247 | 0.229 | 0.48 | 0.239 | 0.641 | 0.837 | 0.62 | 0.573 | 0.389 | 0.192 | 0.238 | 0.225 | 0.199 | 0.207 | 0.903 | 0.497 | 0.611 | 0.439 | 0.327
4 | NCI-H1975 | 0.393 | 0.343 | 0.403 | 0.387 | 0.188 | 0.755 | 0.735 | 0.617 | 0.578 | 0.382 | 0.617 | 0.632 | 0.406 | 0.347 | 0.25 | 0.768 | 0.561 | 0.611 | 0.561 | 0.279
5 | HCC-78 | 0.788 | 0.698 | 0.565 | 0.711 | 0.529 | 0.442 | 0.407 | 0.386 | 0.311 | 0.243 | 0.453 | 0.545 | 0.53 | 0.557 | 0.427 | 0.36 | 0.315 | 0.362 | 0.311 | 0.262
6 | NCI-H2085 | – | 0.531 | 0.618 | 0.579 | 0.665 | 0.741 | 0.812 | 0.869 | 0.751 | 0.661 | 0.445 | 0.489 | 0.471 | 0.463 | 0.475 | 0.935 | 0.903 | 1 | 0.939 | 0.933
7 | H3255 | 0.71 | 0.553 | 0.676 | 0.513 | 0.475 | 0.769 | 0.928 | 0.752 | 0.651 | 0.402 | 0.301 | 0.349 | 0.324 | 0.337 | 0.249 | 0.784 | 0.655 | 0.642 | 0.529 | 0.554
